# Measured values taken from patent US20220135590A1, “ISOXAZOLE COMPOUNDS FOR THE TREATMENT OF DISEASES ASSOCIATED WITH HBV INFECTIONS” (Janssen Science Ireland Unlimited Company, priority 2017, published 2022).
# Tested on: HBV
# Assay: HBV replication inhibition assay (BDNA assay) in HepG2.2.15 cells
# Assay type: cell-based
# Details: Hepatitis B virus, 144 h, 6 days incubation, encapsidated HBV DNA in supernatant by branched DNA QuantiGene assay
# Experimental: HBV Replication Inhibition Assay
# HBV replication inhibition by the disclosed compounds were determined in cells infected or transfected with HBV or cells with stably integrated HBV, such as HepG2.2.15 cells (Sells et al. 1987). In this example, HepG2.2.15 cells were maintained in cell culture medium containing 10% fetal bovine serum (FBS), Geneticin, L-glutamine, penicillin and streptomycin. HepG2.2.15 cells were seeded in 96-well plates at a density of 40,000 cells/well and were treated with serially diluted compounds at a final DMSO concentration of 0.5% either alone or in combination by adding drugs in a checker box format. Cells were incubated with compounds for three days, after which medium was removed and fresh medium containing compounds was added to cells and incubated for another three days. At day 6, supernatant was removed and treated with DNase at 37° C. for 60 minutes, followed by enzyme inactivation at 75° C. for 15 minutes. Encapsidated HBV DNA was released from the virions and covalently linked HBV polymerase by incubating in lysis buffer (Affymetrix QS0010) containing 2.5 μg proteinase K at 50° C. for 40 minutes. HBV DNA was denatured by addition of 0.2 M NaOH and detected using a branched DNA (BDNA) QuantiGene assay kit according to manufacturer recommendation (Affymetrix). HBV DNA levels were also quantified using qPCR, based on amplification of encapsidated HBV DNA extraction with QuickExtraction Solution (Epicentre Biotechnologies) and amplification of HBV DNA using HBV specific PCR probes that can hybridize to HBV DNA and a fluorescently labeled probe for quantitation. In addition, cell viability of HepG2.2.15 cells incubated with test compounds alone or in combination was determined by using CellTitre-Glo reagent according to the manufacturer protocol (Promega). The mean background signal from wells containing only culture medium was subtracted from all other samples, and percent inhibition at each compound concentration was calculated by normalizing to signals from HepG2.2.15 cells treated with 0.5% DMSO using equation E1.
# % inhibition (DMSOave−Xi)DMSOave×100% E1:
# where DMSOave is the mean signal calculated from the wells that were treated with DMSO control (0% inhibition control) and X^1 is the signal measured from the individual wells. EC50 values, effective concentrations that achieved 50% inhibitory effect, were determined by non-linear fitting using Graphpad Prism software (San Diego, Calif.) and equation E2.
# Y=Ymin+(Ymax−Ymin)/(1+10(Log EC50−X)×HillSlope) E2:
# where Y represents percent inhibition values and X represents the logarithm of compound concentrations.
# Selected disclosed compounds were assayed in the HBV replication assay (BDNA assay), as described above, and a representative group of these active compounds is shown in Table 3. […] In Table 3, “A” represents 1 nM<EC50≤100 nM; “B” represents 100 nM<EC50≤1,000 nM; and “C” represents 1,000 nM<EC50≤10,000 nM.
row,SMILES,EC50
1,"C[C@H]1Cc2noc(-c3ncccn3)c2CN1C(=O)Nc1ccc(F)c(C#N)c1 [Example 1, (S)—N-(3-Cyano-4-fluorophenyl)-6-methyl-3-(pyrimidin-2-yl)-6,7-dihydroisoxazolo[4,3-c]pyridine-5(4H)-carboxamide]",1 to 100 nM
2,"C[C@H]1Cc2noc(-c3ncccn3)c2CN1C(=O)Nc1ccnc(C(F)F)c1F [Example 2, (S)—N-(2-(Difluoromethyl)-3-fluoropyridin-4-yl)-6-methyl-3-(pyrimidin-2-yl)-6,7-dihydroisoxazolo[4,3-c]pyridine-5(4H)-carboxamide]",1 to 100 nM
3,"C[C@H]1Cc2noc(-c3ncccn3)c2CN1C(=O)Nc1ccc(F)c(C(F)(F)F)c1 [Example 3, (S)—N-(4-Fluoro-3-(trifluoromethyl)phenyl)-6-methyl-3-(pyrimidin-2-yl)-6,7-dihydroisoxazolo[4,3-c]pyridine-5(4H)-carboxamide]",1 to 100 nM
4,"C[C@H]1Cc2noc(-c3ncccn3)c2CN1C(=O)Nc1ccnc(Br)c1F [Example 4, (S)—N-(2-Bromo-3-fluoropyridin-4-yl)-6-methyl-3-(pyrimidin-2-yl)-6,7-dihydroisoxazolo[4,3-c]pyridine-5(4H)-carboxamide]",1 to 100 nM
5,"C[C@H]1Cc2onc(-c3ncccn3)c2CN1C(=O)Nc1ccc(F)c(C#N)c1 [Example 5, (S)—N-(3-Cyano-4-fluorophenyl)-6-methyl-3-(pyrimidin-2-yl)-6,7-dihydroisoxazolo[4,5-c]pyridine-5(4H)-carboxamide]",1 to 100 nM
6,"C[C@H]1Cc2onc(-c3ncccn3)c2CN1C(=O)Nc1ccnc(C(F)F)c1F [Example 6, (S)—N-(2-(Difluoromethyl)-3-fluoropyridin-4-yl)-6-methyl-3-(pyrimidin-2-yl)-6,7-dihydroisoxazolo[4,5-c]pyridine-5(4H)-carboxamide]",1 to 100 nM
7,"C[C@H]1Cc2onc(-c3ncccn3)c2CN1C(=O)Nc1ccc(F)c(C(F)(F)F)c1 [Example 7, (S)—N-(4-Fluoro-3-(trifluoromethyl)phenyl)-6-methyl-3-(pyrimidin-2-yl)-6,7-dihydroisoxazolo[4,5-c]pyridine-5(4H)-carboxamide]",100 to 1000 nM
8,"C[C@H]1Cc2onc(-c3ncccn3)c2CN1C(=O)Nc1ccnc(Br)c1F [Example 8, (S)—N-(2-Bromo-3-fluoropyridin-4-yl)-6-methyl-3-(pyrimidin-2-yl)-6,7-dihydroisoxazolo[4,5-c]pyridine-5(4H)-carboxamide]",100 to 1000 nM
9,"CC1(C)CN(C(=O)Nc2ccc(F)c(C#N)c2)Cc2c1noc2-c1ncccn1 [Example 9, N-(3-Cyano-4-fluorophenyl)-7,7-dimethyl-3-(pyrimidin-2-yl)-6,7-dihydroisoxazolo[4,3-c]pyridine-5(4H)-carboxamide]",1 to 100 nM
10,"CC1(C)CN(C(=O)Nc2ccc(F)c(C(F)(F)F)c2)Cc2c1noc2-c1ncccn1 [Example 10, N-(4-Fluoro-3-(trifluoromethyl)phenyl)-7,7-dimethyl-3-(pyrimidin-2-yl)-6,7-dihydroisoxazolo[4,3-c]pyridine-5(4H)-carboxamide]",100 to 1000 nM
11,"CC1(C)CN(C(=O)Nc2ccnc(C(F)F)c2F)Cc2c1noc2-c1ncccn1 [Example 11, N-(2-(Difluoromethyl)-3-fluoropyridin-4-yl)-7,7-dimethyl-3-(pyrimidin-2-yl)-6,7-dihydroisoxazolo[4,3-c]pyridine-5(4H)-carboxamide]",100 to 1000 nM
12,"CC1(C)CN(C(=O)Nc2ccnc(Br)c2F)Cc2c1noc2-c1ncccn1 [Example 12, N-(2-Bromo-3-fluoropyridin-4-yl)-7,7-dimethyl-3-(pyrimidin-2-yl)-6,7-dihydroisoxazolo[4,3-c]pyridine-5(4H)-carboxamide]",1 to 100 nM
13,"CC1(C)CN(C(=O)Nc2ccc(F)c(C#N)c2)Cc2c(-c3ncccn3)noc21 [Example 13, N-(3-Cyano-4-fluorophenyl)-7,7-dimethyl-3-(pyrimidin-2-yl)-6,7-dihydroisoxazolo[4,5-c]pyridine-5(4H)-carboxamide]",100 to 1000 nM
14,"CC1(C)CN(C(=O)Nc2ccc(F)c(C(F)(F)F)c2)Cc2c(-c3ncccn3)noc21 [Example 14, N-(4-Fluoro-3-(trifluoromethyl)phenyl)-7,7-dimethyl-3-(pyrimidin-2-yl)-6,7-dihydroisoxazolo[4,5-c]pyridine-5(4H)-carboxamide]",1000 to 10000 nM
15,"CC1(C)CN(C(=O)Nc2ccnc(C(F)F)c2F)Cc2c(-c3ncccn3)noc21 [Example 15, N-(2-(Difluoromethyl)-3-fluoropyridin-4-yl)-7,7-dimethyl-3-(pyrimidin-2-yl)-6,7-dihydroisoxazolo[4,5-c]pyridine-5(4H)-carboxamide]",100 to 1000 nM
16,"CC1(C)CN(C(=O)Nc2ccnc(Br)c2F)Cc2c(-c3ncccn3)noc21 [Example 16, N-(2-Bromo-3-fluoropyridin-4-yl)-7,7-dimethyl-3-(pyrimidin-2-yl)-6,7-dihydroisoxazolo[4,5-c]pyridine-5(4H)-carboxamide]",1 to 100 nM
